From patent publication US9718809B2, “Bisarylsulfonamides useful in the treatment of inflammation and cancer” (Kancera AB, priority 2011, dated 2017)
Counter-ions that a name gives are not always drawn.

Test system: F-2,6-P2 in PANC-1 cells
Experiment: Quantification of F-2,6-P2 (Van Schaftingen coupled enzyme assay) in PANC-1 cells
Assay type: cell-based, human
Conditions: Homo sapiens; PANC-1 cells; read-out: IC50 based on quantification of F-2,6-P2
Source text: A method for quantification of F-2,6-P2 has been described by Van Schaftingen et al. (1982) Eur. J. Biochem. 129, 191-5. This sensitive assay is based on the potent activation of pyrophosphate dependent phosphofructokinase-1 (PPi-PFK) from potato tubers by F-2,6-P2. The use of a series of coupled enzymes leads to a consumption of NADH (nicotinamide adenine dinucleotide) that can be followed spectrophotometrically (an updated protocol is available in Van Schaftingen, (1984) Methods of Enzymatic Analysis (Bergmeyer, H. U., ed.), 3rd edn., vol. 6, pp. 335-341, Verlag Chemie, Weinheim). A protocol for measurements in 96-well microtiter plate format is also available (Bruni et al., (1989) Anal. Biochem. 178, 324-6).
The levels of F-2,6-P2 have been determined using the van Shaftingen assay as described in the protocol below, in six different cancer cell lines endogenously expressing varying levels of the different isoforms of PFK-2/BPase-2 (MCF-7, PANC-1, NUGC-3, SW480, SW620 and MIA PaCa-2). All reagents were purchased from commercial sources or prepared in-house.
Cell line B (PANC-1, human pancreatic carcinoma cell line): PANC-1 cells (ATCC-CRL-1469), lot. no. 58564651. Cells were seeded at a concentration of ˜250 000 cells/mL in 100 μL growth medium (˜25 000 cells/well).
Growth medium (cell lines B-F): Dulbecco's Modified Eagle's Medium, DMEM, VWR, LONZ12-604F; 10% FBS, Invitrogen, 10270-106.
Starvation medium (cell lines A-F): DMEM/F12 without phenol red and glucose free, SVA, 991373; 0.25% FBS, Invitrogen, 10270-106.
Induction medium (cell lines A-F): DMEM/F12 without phenol red and glucose free, SVA, 991373; 0.25% FBS, Invitrogen, 10270-106 (same as starvation medium).
Cells were seeded in 96-well Corning Costar tissue culture plates (CLS3595, Sigma-Aldrich) using the concentrations specified above for the different cell lines A-F and incubated over night at 37° C. and 5% CO2. Row A in the plate was left empty and the cell lines added to rows B-H. Next day the growth medium was discarded and replaced with 100 μL starvation medium. The plates were incubated for 18 h at 37° C. and 5% CO2. After 18 h of starvation the cells were induced with 100 μL compound or control solutions. Compounds were either tested in two concentrations (50 μM and 10 μM) or in dose response curves starting from 50 μM. The final DMSO concentration in assay plates was 0.5%. Also a dose response curve of a reference inhibitor was included in row H on each plate. All compounds were tested in duplicate plates. Compounds (in 96 well CLS 3365, Sigma-Aldrich plates) were serial diluted in DMSO from 10 mM compound DMSO stock solutions with Janus (automated liquid handling workstation from PerkinElmer). Five μL were transferred to a Greiner deep well plate (736-0155, VWR) with 495 μL starvation medium. The final start concentration of compounds in the dilution plate was 100 μM, 1% DMSO. For compounds tested as single points, 10 mM compound solutions were diluted five fold in DMSO to 2 mM, followed by the transfer of 5 μL to separate dilution plates with 495 μL starvation medium. The final concentrations of compounds in these dilution plates were 100 or 20 μM, respectively, and final concentration of DMSO was 1%. The plates were incubated at 37° C. and 5% CO2 for 1 h, followed by the addition of 10 μL 20 mM D-glucose in starvation medium. Controls, with and without 1 mM glucose, were included in row B. The final assay volume was 210 μL per well. After 2 h of incubation at 37° C. and 5% CO2, the supernatants were discarded and the cells lysed by the addition of 25 μL 250 mM NaOH. The plates were incubated at 37° C. and 5% CO2 for 5 min followed by an addition of 75 μL MilliQ dH2O. The supernatants were further diluted with 210 μL MilliQ dH2O to a final concentration of 20 mM NaOH. 200 μL were transferred to NUNC 96-well plates (7322661, VWR) and the plates were sealed and stored at −20° C. until analysis. […]

Structure (SMILES) | IC50
COC(=O)c1ccc(NS(=O)(=O)c2cc(-c3cccnc3)c(Cl)s2)cc1O [Example 111, Methyl 4-{[(5-chloro-4-pyridin-3-ylthiophen-2-yl)sulfonyl]amino}-2-hydroxybenzoate] | 4.6 µM
COC(=O)c1ccc(NS(=O)(=O)c2scc(Br)c2Br)cc1O [Example 57, Methyl 4-{[(3,4-dibromothiophen-2-yl)sulfonyl]amino}-2-hydroxybenzoate] | 5.7 µM
COC(=O)c1ccc(NS(=O)(=O)c2cccc(-c3cccc(C(N)=O)c3)c2)cc1O [Example 113, Methyl 4-{[(3′-carbamoylbiphenyl-3-yl)sulfonyl]amino}-2-hydroxybenzoate] | 5.4 µM
COC(=O)c1ccc(NS(=O)(=O)c2cc(Cl)sc2Cl)cc1O [Example 25, Methyl 4-{[(2,5-dichloro-3-thienyl)sulfonyl]amino}-2-hydroxybenzoate] | 2.3 µM
COC(=O)c1ccc(NS(=O)(=O)c2cccc(-c3ccc(C(=O)N(C)C)cc3)c2)cc1O [Example 101, Methyl 4-({[4′-(dimethylcarbamoyl)biphenyl-3-yl]sulfonyl}amino)-2-hydroxybenzoate] | 8.4 µM
O=C(OCCn1cccc1)c1ccc(NS(=O)(=O)c2cc(Cl)c(Cl)s2)cc1O [Example 61, 2-(1H-Pyrrol-1-yl)ethyl 4-{[(4,5-dichlorothiophen-2-yl)sulfonyl]amino}-2-hydroxybenzoate] | 0.6 µM
COC(=O)c1ccc(NS(=O)(=O)c2cc(-c3cccc(N)c3)c(Cl)s2)cc1O [Example 107, Methyl 4-({[4-(3-aminophenyl)-5-chlorothiophen-2-yl]sulfonyl}amino)-2-hydroxybenzoate trifluoroacetate] | 2.8 µM
COC(=O)c1ccc(NS(=O)(=O)c2cccc(N3CCCCC3)c2)cc1O [Example 142, Methyl 2-hydroxy-4-({[3-(piperidin-1-yl)phenyl]sulfonyl}amino)benzoate] | 1.5 µM
O=C(OC1CCOC1)c1ccc(NS(=O)(=O)c2cc(Cl)sc2Cl)cc1O (centres unmarked) [Example 67, Tetrahydrofuran-3-yl 4-{[(2,5-dichloro-3-thienyl)sulfonyl]amino}-2-hydroxybenzoate] | 5.2 µM
COC(=O)c1ccc(NS(=O)(=O)c2cc(C(F)(F)F)oc2C)cc1O [Example 10, Methyl 2-hydroxy-4-({[2-methyl-5-(trifluoromethyl)furan-3-yl]sulfonyl}amino)benzoate] | 6.7 µM
COC(=O)c1ccc(NS(=O)(=O)c2cccc(-c3cccc(C(=O)OC(C)C)c3)c2)cc1O [Example 128, 1-Methylethyl 3′-{[3-hydroxy-4-(methoxycarbonyl)phenyl]sulfamoyl}biphenyl-3-carboxylate] | 13.3 µM
COC(=O)c1ccc(NS(=O)(=O)c2cnc(Cl)c(Br)c2)cc1O [Example 14, Methyl 4-{[(5-bromo-6-chloropyridin-3-yl)sulfonyl]amino}-2-hydroxybenzoate] | 1.9 µM
O=C(OCCCN1CCOCC1)c1ccc(NS(=O)(=O)c2cc(Cl)c(Cl)s2)cc1O [Example 63, 3-Morpholin-4-ylpropyl 4-{[(4,5-dichlorothiophen-2-yl)sulfonyl]amino}-2-hydroxybenzoate trifluoroacetate] | 4 µM
COC(=O)c1ccc(NS(=O)(=O)c2cc(Cl)c(-c3ccccc3O)s2)cc1O [Example 206, Methyl 4-({[4-chloro-5-(2-hydroxyphenyl)thiophen-2-yl]sulfonyl}amino)-2-hydroxybenzoate] | 8.9 µM
COCCOC(=O)c1ccc(NS(=O)(=O)c2c(Cl)sc(Cl)c2Br)cc1O [Example 197, 2-Methoxyethyl 4-{[(4-bromo-2,5-dichlorothiophen-3-yl)sulfonyl]amino}-2-hydroxybenzoate] | 3.5 µM
COC(=O)c1ccc(NS(=O)(=O)c2cc(Cl)cc(Cl)c2)cc1O [Example 22, Methyl 4-{[(3,5-dichlorophenyl)sulfonyl]amino}-2-hydroxybenzoate] | 1.7 µM
COC(=O)c1ccc(NS(=O)(=O)c2cc(Br)c(F)cc2F)cc1O [Example 49, Methyl 4-{[(5-bromo-2,4-difluorophenyl)sulfonyl]amino}-2-hydroxybenzoate] | 5.7 µM
COC(=O)c1ccc(NS(=O)(=O)c2ccc(F)c(Cl)c2)cc1O [Example 32, Methyl 4-{[(3-chloro-4-fluorophenyl)sulfonyl]amino}-2-hydroxybenzoate] | 4.8 µM

Same assay, conditions: at 12.5-50 μM in PANC-1 cells

Structure (SMILES) | inhibition (F-2,6-P2 levels)
O=C(O)C(F)(F)F.O=C(OCCCn1ccnc1)c1ccc(NS(=O)(=O)c2cc(Cl)c(Cl)s2)cc1O [Example 64, 3-(1H-Imidazol-1-yl)propyl 4-{[(4,5-dichlorothiophen-2-yl)sulfonyl]amino}-2-hydroxybenzoate trifluoroacetate] | ≥ 50%
COC(=O)c1ccc(NS(=O)(=O)c2cccc(-c3ccc(SC)cc3)c2)cc1O [Example 98, Methyl 2-hydroxy-4-({[4′-(methylsulfanyl)biphenyl-3-yl]sulfonyl}amino)benzoate] | ≥ 50%
O=C(O)C(F)(F)F.O=C(OCCOc1ccc(Cl)nc1)c1ccc(NS(=O)(=O)c2cc(Cl)c(Cl)s2)cc1O [Example 226, 2-[(6-Chloropyridin-3-yl)oxy]ethyl 4-{[(4,5-dichloro-2-thienyl)sulfonyl]amino}-2-hydroxybenzoate trifluoroacetate] | ≥ 50%
COC(=O)c1ccc(NS(=O)(=O)c2cccc(OC(F)F)c2)cc1O [Example 31, Methyl 4-({[3-(difluoromethoxy)phenyl]sulfonyl}amino)-2-hydroxybenzoate] | ≥ 50%
COC(=O)c1ccc(NS(=O)(=O)c2cccc(C(C)=O)c2)cc1O [Example 129, Methyl 4-{[(3-acetylphenyl)sulfonyl]amino}-2-hydroxybenzoate] | ≥ 50%
COC(=O)c1ccc(NS(=O)(=O)c2ccc(C(C)(C)C)cc2)cc1O [Example 36, Methyl 4-{[(4-tert-butylphenyl)sulfonyl]amino}-2-hydroxybenzoate] | ≥ 50%
COC(=O)c1ccc(NS(=O)(=O)c2c(C)cccc2Cl)cc1O [Example 43, Methyl 4-{[(2-chloro-6-methylphenyl)sulfonyl]amino}-2-hydroxybenzoate] | ≥ 50%
COC(=O)c1ccc(NS(=O)(=O)c2cncc(-c3cccc(OC)c3F)c2)cc1O [Example 130, Methyl 4-({[5-(2-fluoro-3-methoxyphenyl)pyridin-3-yl]sulfonyl}amino)-2-hydroxybenzoate] | ≥ 50%
COC(=O)c1ccc(NS(=O)(=O)c2cnc(Cl)c(-c3cccc(F)c3)c2)cc1O [Example 83, Methyl 4-({[6-chloro-5-(3-fluorophenyl)pyridin-3-yl]sulfonyl}amino)-2-hydroxybenzoate] | ≥ 50%
COC(=O)c1ccc(NS(=O)(=O)c2ccc(-c3ccccc3)cc2)cc1O [Example 35, Methyl 4-[(biphenyl-4-ylsulfonyl)amino]-2-hydroxybenzoate] | ≥ 50%
COC(=O)c1ccc(NS(=O)(=O)c2cccc(OC)c2)cc1O [Example 121, Methyl 2-hydroxy-4-{[(3-methoxyphenyl)sulfonyl]amino}benzoate] | ≥ 50%
